Measurements as given in ChEMBL document CHEMBL1134570, “Synthesis of and a comparative study on the inhibition of muscle and liver glycogen phosphorylases by epimeric pairs of d-gluco- and d-xylopyranosylidene-spiro-(thio)hydantoins and N-(d-glucopyranosyl) amides” (J Med Chem, 2001).
Activity calls are given as the source filed them. The calls are words filed in the database; no cut-off is given here.

System: glycogen phosphorylase, muscle form (rabbit)
Assay: Inhibitory activity against muscle Glycogen Phosphorylase b; no inhibition
Conditions: Muscle tissue

NI: inactive
Compound: NC(=O)[C@]1(O)OC[C@@H](O)[C@H](O)C1O (stereo partly specified)
